Assays:
[1] = test system: Balb/c mice, IL-23 injected ear; test: Murine model of psoriatic-like epidermal hyperplasia induced by intradermal injections of IL-23; assay type: in vivo; conditions: mouse, intradermal IL-23
Description: Mouse recombinant IL-23, carrier free (Cat #14-8231) is provided by e-Bioscience (Frankfurt, Germany).
Balb/c mice (female, 18-20 g body weight) were obtained from Janvier Labs (Le Genest-Saint-Isle, France). Mice are kept on a 12 h light/dark cycle. Temperature was maintained at 22° C., food and water are provided ad libitum.
The design of the study was adapted from Rizzo H L. et al. (Rizzo et al. 2011).
On the first day (D1), the mice were shaved around the two ears. For 4 consecutive days (D1 to D4), the mice received a daily intradermal dose of mouse recombinant IL-23 (1 μg/20 μL in PBS/0.1% BSA) in the right pinna ear and 20 μL of PBS/0.1% BSA in the left pinna ear under anesthesia.
From D1 to D5, mice were dosed with test-compound or with vehicle, 1 h prior IL-23 injection.
The thickness of both ears was measured daily with an automatic caliper. Body weight was assessed at initiation and at sacrifice. On fifth day, 2 h after the last dosing, the mice were sacrificed. The pinnae of the ear were cut, excluding cartilage. The pinnae, placed in a vial containing 1 mL of RNAlater® solution.
There were 8 mice per group. The results were expressed as mean±SEM and statistical analysis was performed using one-way ANOVA followed by Dunnett's post-hoc test versus IL-23 vehicle groups.

[2] = test system: C57BL/6N mice, bleomycin induced pulmonary fibrosis; test: Therapeutic bleomycin induced pulmonary fibrosis 21-day mice model; assay type: in vivo; conditions: mouse, bleomycin 21-day; 10 mg/kg p.o. b.i.d. in PEG200/MC 0.5% 20/80 (v/v); meta-analysis of two pooled identical study runs
Description: The aim of the study is to test the efficacy of a test compound at three different doses in a 21-day model of bleomycin induced pulmonary fibrosis in mice.
This study is carried out on C57BL/6N male mice, supplied by Charles River (Calco, Italy), which are acclimatized for at least 5 days in an environment maintained at 22° C., at 55% relative humidity, with 15-20 air changes per hour under light cycles of 12 h. Mice pelleted food and water are provided ad libitum.
The solvent for the test solutions is prepared by adding 0.5 g of hydroxyethylcellulose (Natrosol™) into 500 mL aqua distillate (0.1%) under continuous stirring without heating for 5 h on a magnetic stirrer.
To prepare a solution for intranasal (i.n.) challenge, 0.8 mg/mL stock solutions of bleomycin (Cat #BML-AP302-0010, Enzo Life Sciences, Inc., USA) are thawed and diluted in 330 μL of saline. Prior to i.n. administration, mice are anesthetized i.p.
Finally, test compound solutions are prepared by dissolving the suitable amount of said test compound in PEG 400 or PEG 200 (20% of the final volume) then MC 0.5% (80% of the final volume) to reach final concentrations of 1 mg/mL, 0.3 mg/mL and 0.1 mg/mL, thus yielding compound for a doses of 10 mg/kg, 3 mg/kg and 1 mg/kg. […]
Pulmonary histological changes are assessed using Matsuse modification of Ashcroft score (Ashcroft et al. 1988; Matsuse et al. 1999). […]

COc1cc(-c2cnc3cc(C(C)(C)C#N)ccn23)cc(OC(F)F)c1C(=O)NC1CC1 [Cpd 19, 4-[7-(1-cyano-1-methyl-ethyl)imidazo[1,2-a]pyridin-3-yl]-N-cyclopropyl-2-(difluoromethoxy)-6-methoxy-benzamide]
ear thickness compared to IL-23 vehicle group ([1]; 10 mg/kg p.o. b.i.d.): statistically significant decrease

COc1cc(-c2cnc3cc(C4(C#N)COC4)ccn23)cc(OC(F)F)c1C(=O)NC1CC1 [Cpd 117, 4-[7-(3-cyanooxetan-3-yl)imidazo[1,2-a]pyridin-3-yl]-N-cyclopropyl-2-(difluoromethoxy)-6-methoxy-benzamide]
ear thickness compared to IL-23 vehicle group ([1]; 30 mg/kg p.o. b.i.d.): statistically significant decrease

COc1cc(-c2cnc3cc(C4COC4)ccn23)cc(OC(F)F)c1C(=O)NC1CC1 [Cpd 174, N-cyclopropyl-2-(difluoromethoxy)-6-methoxy-4-[7-(oxetan-3-yl)imidazo[1,2-a]pyridin-3-yl]benzamide]
ear thickness compared to IL-23 vehicle group ([1]; 3 mg/kg p.o. b.i.d.): statistically significant decrease

COc1cc(-c2cnn3cc(C(C)(C)C#N)ccc23)cc(OC(F)F)c1C(=O)N[C@@H]1C[C@@H]1F [Cpd 219, 4-[6-(1-cyano-1-methyl-ethyl)pyrazolo[1,5-a]pyridin-3-yl]-2-(difluoromethoxy)-N-[(1R,2S)-2-fluorocyclopropyl]-6-methoxy-benzamide]
Ashcroft score compared to the vehicle group [2]: statistically significant decrease

From patent publication US12391679B2, “Benzamide-substituted bicyclic imidazo- and pyrazolo-fused -pyridine, -pyrimide, and -pyridazine compounds for treatment of inflammatory diseases” (ONCO3R Therapeutics BV, priority 2019, dated 2025)
